For 91 molecules, melting point results are on record in a melting point compilation (Tetko et al.; mined from patent text by program, amines drawn as free bases though some values may be those of a salt).

One may read the melting point as the temperature, or range, at which the solid turns liquid.

With `N#Cc1cccc(CNc2cc(C(N)=O)c([N+](=O)[O-])cc2[N+](=O)[O-])c1`, the melting point was 228 to 230 °C.
As for `Cc1cccc2c1c(N1CCOCC1)nc1c(-c3nc(C4CC4)no3)ncn12`, the figure is 262 to 266 °C; as for `CC(=O)N(C)C1CCC(=O)c2ccccc21` (stereo unspecified), 101 to 103 °C.
`CN1C2CCC1CN(c1ccc3cc([N+](=O)[O-])ccc3n1)C2` yielded a melting point of 152 to 154 °C.
To `CC(C)c1ccc(S(=O)(=O)n2c(CCCC(=O)O)cc3nc(Cl)ccc32)cc1` belongs 155 °C.
To `NC(=O)N(O)[C@H]1CC[C@H](Oc2ccccc2)C1` belongs 134 °C; to `O=C(NCC1CCN(C(=O)OCc2ccccc2)CC1)c1ccc(O)cc1`, 122 to 123 °C; to `COc1cc(C=Cc2ccc(Cl)cc2)ccc1O`, 121 to 124 °C.
To `O=C(c1ccc(O)cc1)c1c(-c2ccccc2)ccc2ccccc12` belongs 204 to 205 °C; to `O=Cc1c2ccccc2c(OCCO)c2ccccc12`, 142 to 144 °C.
As for `CC(=O)SCC(C(=O)NC(CC(=O)O)Cc1ccccc1)C(F)(F)F` (stereo unspecified), the melting point lay within 171 to 172 °C.
To `CN1CCC(c2cc3ccccc3c(=O)[nH]2)CC1` belongs 255 to 257 °C; to `CC(=O)Oc1cc(C)c(C)cc1C1(OC(C)=O)C(=O)c2ccccc2C1=O`, 206 to 207 °C.
To `Cc1[nH]c2ccc(Cl)cc2c1C(C(=O)C1(Cl)C=CC=CC1)c1cc(=O)n(C2CCCCC2)[nH]1` (stereo unspecified) belongs 121 °C; to `C[C@@H]1O[C@](C#CC2CC2)(C(F)(F)F)c2c(ccc(F)c2F)NC1=O` (relative stereo), 219 to 220 °C; to `COC(=O)C1=C(C)NC(c2c(F)cccc2F)=NC1c1ccc(F)cc1Cl` (stereo unspecified), 126 to 128 °C.
To `O=c1n(CCCCN2CCN(c3cccc(Cl)c3)CC2)nc2n1-c1ccccc1OC2` belongs 132 to 134 °C; to `N#Cc1cnc2ccsc2c1Oc1ccc(Cl)cc1Cl`, 158 to 160 °C; to `O=C1CCCN1C(=O)c1ccc(OCc2ccccc2)cc1`, 115 to 117 °C.
For `CCCc1nn(C)c2c(=O)[nH]c(-c3cc(C(=O)O)ccc3OCC)nc12`, the melting point lay in the range of 285 to 288 °C.
As for `O=CCC[C@@H]1[C@@H](OCc2ccc(-c3ccccc3)cc2)CO[C@@H]1c1cccnc1`, the figure is 204 to 205 °C; as for `Cc1cc(-c2ccc(Cl)cc2)nn2c(=O)[nH]nc12`, 278 to 280 °C.
To `Cc1csc(=Nc2ccccc2C)s1` belongs 65.5 to 69 °C.
Molecule `O=C(O)C1=Cc2cc(Cl)c(C(F)(F)F)cc2OC1C(F)(F)F` (stereo unspecified) showed a melting point of 181 to 182 °C.
As for `CCNC1([C@@H]2CCN(c3ccc4c(=O)c(C(=O)O)cn([C@@H]5C[C@@H]5F)c4c3C)C2)CC1`, the figure is 191 to 194 °C; as for `O=C(O)c1ccc2cccc(Br)c2c1`, 265 to 266 °C.
As for `COC(=O)[C@@H](NC(=O)c1ccc(C#Cc2ccc(C=O)cc2)cc1)[C@@H](C)O`, the figure is 143 to 144 °C; as for `COc1cc2nc(N3CCc4ccc(NC(C)=O)cc4C3)nc(N)c2cc1OC`, 243 to 244 °C.
To `CCN(CC)CCOc1ccc2cc3ccc(OCCN(CC)CC)c([N+](=O)[O-])c3nc2c1[N+](=O)[O-]` belongs 138 to 140 °C; to `Cc1cc(C)nc(SSc2ccc([N+](=O)[O-])cc2C(Cl)(Cl)Cl)n1`, 151 °C; to `CC(C)(O)C1COCc2nc3c(N)nc4ccccc4c3n21` (stereo unspecified), 216 to 217 °C.
Take `COc1ccc([N+](=O)[O-])c(NCCO)n1`: the melting point was 121 to 122 °C.
To `C=CCO[C@@H]1C[C@H]2[C@H](C(=O)O)[C@H]2[C@]1(N)C(=O)O` belongs above 250 °C; to `CCC1(C)CC(=O)C(C(=O)Nc2ccc(Cl)c(C(F)(F)F)c2)C(=O)C1` (stereo unspecified), 87 to 88 °C.
To `CCNC1=NS(=O)(=O)c2sc(Cl)cc2N1` belongs 271 to 274 °C.
To `COc1ccc(S(=O)(=O)NC(C)c2ccccc2-c2cc(F)ccc2F)cc1` (stereo unspecified) belongs 143 to 144 °C; to `CC1(C)C(=O)NCCN1C(=O)C(Cc1ccccc1)N1C(=O)c2ccccc2C1=O` (stereo unspecified), 221 to 223 °C.
Take `Oc1ccc(SSc2ccc(O)cc2)cc1`: the melting point fell in the range of 144 to 146 °C.
As for `O=C(Oc1c(Cl)cc(Cl)c(Cl)c1Cl)c1ccc(CCl)cc1`, the figure is 143 to 149 °C.
Consider `O=C(O)c1cn(C2CC2)c2c(F)c(N3CCOC(CN4CCOCC4)C3)c(F)cc2c1=O` (stereo unspecified), for which the melting point fell in the range of 171 to 172 °C.
As for `COC(=O)C[C@H](O)C[C@H](O)CCc1c(-c2ccc(F)cc2)c(-c2ccccc2)c(C(=O)NCc2ccccc2)n1C(C)C`, the figure is 52 to 55 °C; as for `O=C(c1ccccc1)c1ccc(N2CCCCC2)c([N+](=O)[O-])c1`, 77 °C; as for `COc1ccc(C(=O)NCCCCCCCNC(=O)c2ccc(OC)c(Cl)c2)cc1Cl`, 132 to 133 °C.
As for `O=C(O)c1c(Cc2cc3c(cc2Cl)OCO3)c(-c2ccccn2)nn1CC1CCC(C(=O)O)CC1` (stereo unspecified), the figure is 261 °C; as for `CC(C)n1c(=O)nc(-c2ccc3c(c2)CCO3)c2cc3c(cc21)OCO3`, 206 to 209 °C.
To `O=C(O)CCC1COc2ccccc2O1` (stereo unspecified) belongs 102 °C; to `OCCNc1ccnc2cc(C(F)(F)F)ccc12`, 181 to 182 °C.
Molecule `O=C(O)COc1ccc2c(-c3ccc(Cl)cc3)noc2c1` yielded a melting point of 207 °C.
As for `c1cn(Cc2ccc3[nH]c(-n4ccnc4)nc3c2)cn1`, the figure is 226 °C; as for `O=c1[nH]c2cccc(OCCNCc3ccc(Cl)cc3)c2[nH]c1=O`, above 250 °C.
`CC(CC(=O)OCc1ccccc1)NC(=O)CCNC(=O)OC(C)(C)C` (stereo unspecified) registered a melting point of 70 to 72 °C.
As for `COc1ccccc1N1CCc2c(Cl)nc3c(OC)cccc3c21`, the figure is 99 to 101 °C; as for `O=C(O)c1ccc2c(c1)Nc1ccccc1S2`, above 235 °C; as for `CCN(CC)CCNC(=O)c1c(O)c2cnc(-c3ccccc3)nc2n(CCOC)c1=O`, 115 to 117 °C.
As for `O=C(NC1(CO)NCC(O)C(O)C1O)c1ccccc1` (stereo unspecified), the figure is 154 to 156 °C; as for `O=Nc1c(-c2ccc(Cl)cc2)nc2sc3ccccc3n12`, 203 to 206 °C.
As for `CCOP(=O)(OCC)c1cnc2ccc(C(F)(F)F)cc2c1`, the figure is 69 °C.
`CC(C)(C)OC(=O)N[C@H](Cc1ccccc1)C(=O)N1CCC[C@H]1C(=O)NCc1ccc(C#N)nc1` gave a melting point of 167 to 170 °C.
As for `COc1ccc(C(O)CNCCc2ccc(OC)c(OC)c2C)cc1` (stereo unspecified), the melting point was 128 to 129 °C.
As for `COc1ccc(Br)c(Cl)c1C(=O)O`, the figure is 186 to 188 °C; as for `COC(=O)c1cccc(-n2cccc2)n1`, 61 °C.
Consider `Cc1cccc(C(=O)Nc2ccc(C(=O)N3Cc4ccccc4Cc4ccccc43)cc2)c1C`, for which the melting point lay in the range of 138 to 142 °C.
To `COc1cc(OC)c2c(-c3cc(F)cc(F)c3)coc2c1` belongs 102 to 103 °C.
To `CCCCNC(=S)Nc1cccc(-c2ccnc3c(C(=O)c4cccs4)cnn23)c1` belongs 155 to 157 °C.
As for `N#Cc1ccc2ccccc2c1O`, the figure is 182 to 183 °C.
`COC(=O)C1CSC=CCCCC(=O)N1` (stereo unspecified) registered a melting point of 160 to 161 °C.
As for `COc1ncnc2c1ncn2[C@H](C)[C@](O)(Cn1cncn1)c1ccc(F)cc1F`, the figure is 124 to 125 °C; as for `COCCCOc1cc(C[C@@H](C(=O)O)C(C)C)ccc1OC`, 43.5 to 44 °C.
For `C=CS(=O)(=O)c1c(Cl)c(Cl)nn1C`, the melting point lay within 66 to 69 °C.
As for `COc1cccc(OC)c1C(N)=O`, the figure is 208 to 209 °C; as for `Cn1c(=O)cnn(-c2cc(N)c(Cl)cc2F)c1=O`, 150 to 152 °C; as for `O=C1NC(=O)C2(CCCc3ncc(Cl)cc32)N1` (stereo unspecified), 230 to 233 °C.
As for `CC(C)(C)OC(=O)CCc1cc(C#N)nc(-c2nc(=O)c3ccccc3s2)c1`, the figure is 190 to 191 °C; as for `CCN(CC)CC(O)CNC(=O)c1c(OC)c2cc(C)ccc2n1-c1ccccc1` (stereo unspecified), 126 to 128 °C; as for `Cc1nc(-c2ccc(C#CC3(O)CN4CCC3CC4)cc2)no1` (single isomer, unassigned; (-)), 211 to 212 °C.
As for `CCCCc1nc2c(N)nc3ccccc3c2n1CCCCNS(C)(=O)=O`, the figure is 195 to 196 °C; as for `O=CC12CC(c3ccccc31)c1ccc(Cl)cc12` (stereo unspecified), 91 to 92 °C.
`c1ccc(-c2cccc3c4c([nH]c23)CCNCC4)cc1` returned a melting point of 143 to 174 °C.
To `CSCCOC(=O)CSc1cc(N=c2sc(=O)n3n2CCCC3)ccc1Cl` belongs 57 to 58 °C; to `Cc1cc(OCCN(C)C)c(C(C)C)cc1OC(=O)CCCC(=O)O`, 109 to 110 °C.
As for `CCC(C)(O)c1cc(NC(=O)N2CCN(c3cc(OC)cc(OC)c3)CC2)c(OC)nc1C` (stereo unspecified), the figure is 127 to 129 °C; as for `CCOc1c(CS(=O)(=O)C2=NOC(C)(CCl)C2)c(C(F)(F)F)nn1CC` (stereo unspecified), 67 to 69 °C.
To `Cc1nnc2nc(-c3cccc(C(F)(F)F)c3)ccn12` belongs 232 to 234 °C.
The molecule `CCCN(CCC)CC(=O)Nc1cccc2c1C(=O)c1c(NC(=O)CN(CCC)CCC)cccc1C2=O` had a melting point of 129 to 130 °C.
As for `O=C1NCC(CCOC(=O)c2ccccc2)(c2ccc(F)c(F)c2)O1` (stereo unspecified), the figure is 147 °C.
The molecule `C[Si](C)(C)/C=C/c1c(N)nc(-c2ccc(Cl)c(F)c2F)nc1C(=O)O` displayed a melting point of 155 to 157 °C.
To `CCC(C(=O)OC)c1cccc(C(=O)c2cc3cc(C(=O)OC)sc3s2)c1` (stereo unspecified) belongs 143 °C.
As to `CS(=O)(=O)c1ccc(-c2cc(C(F)(F)F)nn2-c2ccc(CO)cc2)cc1`, the melting point fell in the range of 129 to 133 °C.
To `Cc1ccc(NC(=O)N2CC(Oc3cccc(C(F)(F)F)c3)C2)cc1` belongs 191 to 192 °C.
`CN(C)c1ccc(C(=O)c2ccc(O)cc2)cc1` had a melting point of 199 to 200 °C.
As for `COc1cc(C(C)=O)ccc1C1CCCCO1` (stereo unspecified), the figure is 67 to 69 °C.
